# Data: patent US4112097A, “Antihypertensive agents” (Abbott Laboratories, priority 1977, dated 1978)
# Where a name gives a salt, the structure may show the parent alone.
# What was measured:
# physchem = conditions: water
# Experimental: The water in the filtrate was removed in vacuo and the residue weighed and found to be 16.7 mg.
# [1] = tested on: spontaneously hypertensive (SH) rats; assay: Antihypertensive effect (blood pressure and heart rate) in spontaneously hypertensive rats; assay type: in vivo, rat; conditions: for Percent Change (antihypertensive effect): individual values of 2 rats; for Percent Change BP (blood pressure) / Percent Change HR (heart rate): N=4, mean
# Experimental: The screening is conducted as follows:
# Male spontaneously hypertensive (SH) rats are trained to be restrained in a wire mesh cylinder in a warming box, at least two training cycles being conducted before testing. The rats are warmed for about 1/2 hour period to blood pressure measurement, the warming box being maintained at a constant temperature of 36° C.
# An occluding cuff attached to the programed sphymomanometer is placed near the base of the tail of each rat and the pressure in the cuff is increased automatically from 0 to 250 milimeters of mercury (mm Hg) at a rate of 10 mm Hg per second. The total time for each cycle of inflation and deflation of the cuff is 50 seconds and the interval between cycles is one minute.
# A photocell is placed distal to the cuff to record the pulses due to forward motion of blood flow with each heart beat. As the pressure in the cuff increases, the pulse disappears completely at a point where cuff pressure equals or exceeds the arterial blood pressure and it reappears during deflation at approximately the same pressure. Five interference free signals for deflation are recorded for each rat. Rats with a blood pressure of 180 mm Hg or more during the control period are used in the study. Blood pressure and heart rate readings are recorded on a model VII Grass polygraph at intervals of 1, 3, 5 and 24 hours after administration of the drug.
# [2] = intraperitoneal 30 mg/kg, 1 hour
# [3] = intraperitoneal 30 mg/kg, 3 hours
# [4] = intraperitoneal 30 mg/kg, 5 hours
# [5] = intraperitoneal 30 mg/kg, 24 hours
# [6] = intraperitoneal 0.3 mg/kg, 1 hour
# [7] = intraperitoneal 0.3 mg/kg, 3 hours
# [8] = intraperitoneal 0.3 mg/kg, 5 hours
# [9] = intraperitoneal 0.3 mg/kg, 24 hours
# [10] = intraperitoneal 1 mg/kg, 1 hour
# [11] = intraperitoneal 1 mg/kg, 3 hours
# [12] = intraperitoneal 1 mg/kg, 5 hours
# [13] = intraperitoneal 1 mg/kg, 24 hours
# [14] = intraperitoneal 3 mg/kg, 1 hour
# [15] = intraperitoneal 3 mg/kg, 3 hours
# [16] = intraperitoneal 3 mg/kg, 5 hours
# [17] = intraperitoneal 3 mg/kg, 24 hours
# [18] = intraperitoneal 10 mg/kg, 1 hour
# [19] = intraperitoneal 10 mg/kg, 3 hours
# [20] = intraperitoneal 10 mg/kg, 5 hours
# [21] = intraperitoneal 10 mg/kg, 24 hours
smiles,measurement,setting,value
"COc1cc2nc(N3CCN(C(=O)C4CCCCO4)CC3)nc(N)c2cc1OC (centres unmarked) [2-[4(Tetrahydropyran-2-Carbonyl)Piperazinyl]-4-Amino-6,7-Dimethoxyquinazoline Hydrochloride]",solubility,physchem,56.5 mg/mL
"COc1cc2nc(N3CCN(C(=O)C4CCCCO4)CC3)nc(N)c2cc1OC (centres unmarked) [Formula III, 2-[4(tetrahydropyran-2-carbonyl)piperazinyl]-4-amino-6,7-dimethoxyquinazoline]",Percent Change (antihypertensive effect),[1]; [2],-58%
same,Percent Change (antihypertensive effect),[1]; [3],-71%
same,Percent Change (antihypertensive effect),[1]; [4],-47%
same,Percent Change (antihypertensive effect),[1]; [5],-28%
same,Percent Change (antihypertensive effect),"[1]; oral 1 mg/kg, 1 hour, 1 mg/kg",-34%
same,Percent Change (antihypertensive effect),"[1]; oral 1 mg/kg, 3 hours, 1 mg/kg",-25%
same,Percent Change (antihypertensive effect),"[1]; oral 1 mg/kg, 5 hours, 1 mg/kg",-21%
same,Percent Change (antihypertensive effect),"[1]; oral 1 mg/kg, 24 hours, 1 mg/kg",-7%
"COc1cc2nc(N3CCN(C(=O)C4CCCO4)CC3)nc(N)c2cc1OC (centres unmarked) [Formula II, 2[4(tetrahydro-2-furoyl)-piperazino]-4-amino-6,7-dimethoxyquinazoline]",antihypertensive effect in words,[1]; SH rats,potent antihypertensive agents which lower the blood pressure of spontaneously hypertensive rats
same,heart rate in words,[1]; SH rats,without causing any significant changes in heart rate
same,Percent Change BP (blood pressure),[1]; [6],-22.3%
same,Percent Change HR (heart rate),[1]; [6],20.0%
same,Percent Change BP (blood pressure),[1]; [7],-26.5%
same,Percent Change HR (heart rate),[1]; [7],10.3%
same,Percent Change BP (blood pressure),[1]; [8],-20.5%
same,Percent Change HR (heart rate),[1]; [8],14.3%
same,Percent Change BP (blood pressure),[1]; [9],2.5%
same,Percent Change HR (heart rate),[1]; [9],10.0%
same,Percent Change BP (blood pressure),[1]; [10],-26.5%
same,Percent Change HR (heart rate),[1]; [10],22.8%
same,Percent Change BP (blood pressure),[1]; [11],-27.5%
same,Percent Change HR (heart rate),[1]; [11],2.8%
same,Percent Change BP (blood pressure),[1]; [12],-17.0%
same,Percent Change HR (heart rate),[1]; [12],11.5%
same,Percent Change BP (blood pressure),[1]; [13],3.8%
same,Percent Change HR (heart rate),[1]; [13],-9.5%
same,Percent Change BP (blood pressure),[1]; [14],-45.3%
same,Percent Change HR (heart rate),[1]; [14],7.8%
same,Percent Change BP (blood pressure),[1]; [15],-39.0%
same,Percent Change HR (heart rate),[1]; [15],-1.5%
same,Percent Change BP (blood pressure),[1]; [16],-40.0%
same,Percent Change HR (heart rate),[1]; [16],3.0%
same,Percent Change BP (blood pressure),[1]; [17],-2.3%
same,Percent Change HR (heart rate),[1]; [17],-0.5%
same,Percent Change BP (blood pressure),[1]; [18],-49.8%
same,Percent Change HR (heart rate),[1]; [18],9.0%
same,Percent Change BP (blood pressure),[1]; [19],-41.5%
same,Percent Change HR (heart rate),[1]; [19],24.5%
same,Percent Change BP (blood pressure),[1]; [20],-41.8%
same,Percent Change HR (heart rate),[1]; [20],34.5%
same,Percent Change BP (blood pressure),[1]; [21],-7.5%
same,Percent Change HR (heart rate),[1]; [21],14.0%
same,Percent Change BP (blood pressure),[1]; [2],-59.5%
same,Percent Change HR (heart rate),[1]; [2],-9.0%
same,Percent Change BP (blood pressure),[1]; [3],-42.3%
same,Percent Change HR (heart rate),[1]; [3],1.8%
same,Percent Change BP (blood pressure),[1]; [4],-44.5%
same,Percent Change HR (heart rate),[1]; [4],5.3%
same,Percent Change BP (blood pressure),[1]; [5],-22.3%
same,Percent Change HR (heart rate),[1]; [5],5.8%
same,Percent Change BP (blood pressure),"[1]; oral 0.03 mg/kg, 1 hour",-5.3%
same,Percent Change HR (heart rate),"[1]; oral 0.03 mg/kg, 1 hour",-4.3%
same,Percent Change BP (blood pressure),"[1]; oral 0.03 mg/kg, 3 hours",-1.8%
same,Percent Change HR (heart rate),"[1]; oral 0.03 mg/kg, 3 hours",-8.5%
same,Percent Change BP (blood pressure),"[1]; oral 0.03 mg/kg, 5 hours",-9.3%
same,Percent Change HR (heart rate),"[1]; oral 0.03 mg/kg, 5 hours",-14.5%
same,Percent Change BP (blood pressure),"[1]; oral 0.03 mg/kg, 24 hours",-3.3%
same,Percent Change HR (heart rate),"[1]; oral 0.03 mg/kg, 24 hours",-8.8%
same,Percent Change BP (blood pressure),"[1]; oral 0.1 mg/kg, 1 hour",3.8%
same,Percent Change HR (heart rate),"[1]; oral 0.1 mg/kg, 1 hour",3.0%
same,Percent Change BP (blood pressure),"[1]; oral 0.1 mg/kg, 3 hours",1.8%
same,Percent Change HR (heart rate),"[1]; oral 0.1 mg/kg, 3 hours",4.8%
same,Percent Change BP (blood pressure),"[1]; oral 0.1 mg/kg, 5 hours",-7.3%
same,Percent Change HR (heart rate),"[1]; oral 0.1 mg/kg, 5 hours",-6.8%
same,Percent Change BP (blood pressure),"[1]; oral 0.1 mg/kg, 24 hours",-1.5%
same,Percent Change HR (heart rate),"[1]; oral 0.1 mg/kg, 24 hours",-0.3%
same,Percent Change BP (blood pressure),"[1]; oral 0.3 mg/kg, 1 hour",-15.8%
same,Percent Change HR (heart rate),"[1]; oral 0.3 mg/kg, 1 hour",-1.0%
same,Percent Change BP (blood pressure),"[1]; oral 0.3 mg/kg, 3 hours",-22.8%
same,Percent Change HR (heart rate),"[1]; oral 0.3 mg/kg, 3 hours",-2.8%
same,Percent Change BP (blood pressure),"[1]; oral 0.3 mg/kg, 5 hours",-21.3%
same,Percent Change HR (heart rate),"[1]; oral 0.3 mg/kg, 5 hours",-2.8%
same,Percent Change BP (blood pressure),"[1]; oral 0.3 mg/kg, 24 hours",2.0%
same,Percent Change HR (heart rate),"[1]; oral 0.3 mg/kg, 24 hours",10.5%
same,Percent Change BP (blood pressure),"[1]; oral 1 mg/kg, 1 hour",-15.8%
same,Percent Change HR (heart rate),"[1]; oral 1 mg/kg, 1 hour",-9.0%
same,Percent Change BP (blood pressure),"[1]; oral 1 mg/kg, 3 hours",-17.3%
same,Percent Change HR (heart rate),"[1]; oral 1 mg/kg, 3 hours",-9.3%
same,Percent Change BP (blood pressure),"[1]; oral 1 mg/kg, 5 hours",-22.5%
same,Percent Change HR (heart rate),"[1]; oral 1 mg/kg, 5 hours",-8.5%
same,Percent Change BP (blood pressure),"[1]; oral 1 mg/kg, 24 hours",3.5%
same,Percent Change HR (heart rate),"[1]; oral 1 mg/kg, 24 hours",-4.5%
same,Percent Change BP (blood pressure),"[1]; oral 3 mg/kg, 1 hour",-29.0%
same,Percent Change HR (heart rate),"[1]; oral 3 mg/kg, 1 hour",-9.3%
same,Percent Change BP (blood pressure),"[1]; oral 3 mg/kg, 3 hours",-33.3%
same,Percent Change HR (heart rate),"[1]; oral 3 mg/kg, 3 hours",-11.0%
same,Percent Change BP (blood pressure),"[1]; oral 3 mg/kg, 5 hours",-31.5%
same,Percent Change HR (heart rate),"[1]; oral 3 mg/kg, 5 hours",-11.0%
same,Percent Change BP (blood pressure),"[1]; oral 3 mg/kg, 24 hours",-12.3%
same,Percent Change HR (heart rate),"[1]; oral 3 mg/kg, 24 hours",-5.3%
same,Percent Change BP (blood pressure),"[1]; oral 10 mg/kg, 1 hour",-37.0%
same,Percent Change HR (heart rate),"[1]; oral 10 mg/kg, 1 hour",12.3%
same,Percent Change BP (blood pressure),"[1]; oral 10 mg/kg, 3 hours",-42.0%
same,Percent Change HR (heart rate),"[1]; oral 10 mg/kg, 3 hours",16.5%
same,Percent Change BP (blood pressure),"[1]; oral 10 mg/kg, 5 hours",-38.0%
same,Percent Change HR (heart rate),"[1]; oral 10 mg/kg, 5 hours",-10.3%
same,Percent Change BP (blood pressure),"[1]; oral 10 mg/kg, 24 hours",-12.0%
same,Percent Change HR (heart rate),"[1]; oral 10 mg/kg, 24 hours",1.5%
same,Percent Change BP (blood pressure),"[1]; oral 30 mg/kg, 1 hour",-30.0%
same,Percent Change HR (heart rate),"[1]; oral 30 mg/kg, 1 hour",-9.8%
same,Percent Change BP (blood pressure),"[1]; oral 30 mg/kg, 3 hours",-23.8%
same,Percent Change HR (heart rate),"[1]; oral 30 mg/kg, 3 hours",-8.8%
same,Percent Change BP (blood pressure),"[1]; oral 30 mg/kg, 5 hours",-26.0%
same,Percent Change HR (heart rate),"[1]; oral 30 mg/kg, 5 hours",-15.5%
same,Percent Change BP (blood pressure),"[1]; oral 30 mg/kg, 24 hours",-4.0%
same,Percent Change HR (heart rate),"[1]; oral 30 mg/kg, 24 hours",-8.0%
